Where a name gives a salt, the structure may show the parent alone.

T2 sequence (P25774 115-331): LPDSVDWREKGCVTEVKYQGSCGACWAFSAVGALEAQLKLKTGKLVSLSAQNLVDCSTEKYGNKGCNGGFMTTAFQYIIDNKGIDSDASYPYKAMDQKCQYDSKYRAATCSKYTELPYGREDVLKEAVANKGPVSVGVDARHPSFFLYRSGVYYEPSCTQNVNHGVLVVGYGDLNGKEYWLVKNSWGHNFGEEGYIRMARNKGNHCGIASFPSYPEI

The target in one test is T1, calpain-I isolated from human erythrocytes (Homo sapiens, UniProt P07384).
T1 construct: calpain-I—isolated from human erythrocytes; purchased Calbiochem 208713; host or cells: human erythrocytes (tissue isolate)
T1 sequence (P07384 1-714): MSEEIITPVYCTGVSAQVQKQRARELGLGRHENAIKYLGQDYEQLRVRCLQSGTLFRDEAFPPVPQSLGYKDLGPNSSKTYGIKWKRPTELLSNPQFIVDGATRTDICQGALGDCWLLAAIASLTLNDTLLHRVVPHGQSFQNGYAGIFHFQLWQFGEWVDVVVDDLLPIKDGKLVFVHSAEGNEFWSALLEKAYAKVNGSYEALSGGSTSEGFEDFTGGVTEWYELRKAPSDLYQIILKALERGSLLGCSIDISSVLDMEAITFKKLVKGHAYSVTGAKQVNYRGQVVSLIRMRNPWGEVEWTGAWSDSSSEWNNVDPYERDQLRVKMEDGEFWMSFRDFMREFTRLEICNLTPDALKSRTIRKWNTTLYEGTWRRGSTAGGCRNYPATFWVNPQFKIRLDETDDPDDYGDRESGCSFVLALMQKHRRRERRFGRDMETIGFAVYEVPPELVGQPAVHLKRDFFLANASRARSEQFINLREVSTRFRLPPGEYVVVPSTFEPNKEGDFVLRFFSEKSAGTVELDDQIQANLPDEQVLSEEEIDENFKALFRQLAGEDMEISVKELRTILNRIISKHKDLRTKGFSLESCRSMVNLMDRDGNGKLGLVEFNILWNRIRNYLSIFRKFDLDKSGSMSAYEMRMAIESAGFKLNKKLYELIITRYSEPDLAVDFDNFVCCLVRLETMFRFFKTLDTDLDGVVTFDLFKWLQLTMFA
T1 sequence (P04632 1-268 partner): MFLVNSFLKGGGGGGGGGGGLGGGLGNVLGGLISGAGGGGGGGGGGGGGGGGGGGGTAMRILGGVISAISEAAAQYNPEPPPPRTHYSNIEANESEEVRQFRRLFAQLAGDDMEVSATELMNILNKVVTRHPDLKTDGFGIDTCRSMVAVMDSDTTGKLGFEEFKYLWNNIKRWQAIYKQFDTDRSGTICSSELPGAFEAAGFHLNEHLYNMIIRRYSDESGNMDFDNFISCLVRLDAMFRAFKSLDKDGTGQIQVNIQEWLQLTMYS
Briefly: Calpain I kinetic fluorescence enzyme inhibition assay. It is filed as biochemical. To be noted: apparent Ki from IC50 by Cheng-Prussoff; average of 2 to 4 dose-effect plots. On the procedure:
(§1) The following solutions and buffers were employed: • HBS (for 40 ml): 800 μl M HEPES; 2.16 ml 100 mM KCl; 4.8 ml 1M NaCl; 3.59 ml 5% glucose; 60 μl μM MgSO4; 400 μl 100 mM Na pyruvate, 28.19 ml water; pH 7.2-7.5. • lysis buffer (for 20 ml): 400 μl M Tris pH 8.2; 2.74 ml 1M NaCl; 520 μl 0.5M EDTA; 2 ml 10% triton X-100; 0.8 ml (=1:25) CompletePlus (1 tablet/2 ml H2O); 200 μl 100 mM Pefabloc; 13.34 ml water, pH 8.2. • TBST (10×) (for 1 l): 100 mM Tris (12.1 g); 1.5M NaCl (87 g); 1% Tween 20 (10 g), adjusted to pH 8. I Enzyme Inhibition In Vitro: • Testing for blockade of the corresponding enzymic activities was carried out by means of kinetic fluorescence assays (excitation 390 nm, emission 460 nm). • Apparent Ki values were calculated from the experimentally determined IC50 values by the Cheng-Prussoff relation assuming a reversible competitive enzyme inhibition. The Km values of the substrates used under the assay conditions indicated above were: 90 μM (Z-Phe-Arg-AMC, cathepsin B), 10 μM (Z-Gly-Pro-Arg-AMC, cathepsin K), 2 μM (Z-Phe-Arg-AMC, cathepsin L), and 30 μM (Z-Val-Val-Arg-AMC, cathepsin S). • The indicated Ki values are averages of the inhibition constants calculated on the basis of 2 to 4 independent dose-effect plots.
(§2) The following assays were used: • 1. Calpain I: • 20 nM calpain-I—isolated from human erythrocytes (Calbiochem #208713), 100 μM Suc-Leu-Tyr-AMC (Bachem #1-1355) as substrate in buffer with 62 mM imidazole, 0.3 mM CaCl2, 0.10% CHAPS, 0.05% BSA, 1 mM DTT at pH 7.3 and room temperature. • 2. Cathepsin B: • 0.25 nM cathepsin B—isolated from human liver (Calbiochem #219362), 100 μM Z-Phe-Arg-AMC (Bachem #I-1160) as substrate 50 mM MES, 2 mM EDTA, 0.05% Brij 35, 2.5 mM L-cysteine, pH 6.0, room temperature. • 3. Cathepsin K: • 3 nM cathepsin K—activated from recombinant human procathepsin K from E. coli (Calbiochem #342001), 10 μM Z-Gly-Pro-Arg-AMC (Biomol #P-142) as substrate in 50 mM MES, 2 mM EDTA, 0.05% Brij 35, 2.5 mM L-cysteine, pH 6.0, room temperature. • 4. Cathepsin L: • 1 nM cathepsin L—isolated from human liver (Calbiochem #219402), 2 μM Z-Phe-Arg-AMC (Bachem #1-1160) as substrate in 50 mM MES, 2 mM EDTA, 0.05% Brij 35, 2.5 mM L-cysteine, pH 6.0, room temperature. • 5. Cathepsin S: • 0.5 nM recombinant human cathepsin S from E. coli (Calbiochem #219343), 20 μM Z-Val-Val-Arg-AMC (Bachem #1-1540) as substrate in 50 mM MES, 2 mM EDTA, 0.05% Brij 35, 2.5 mM L-cysteine, pH 6.0, room temperature. • The results of the in vitro determination are indicated in Table 1. The following abbreviations are used in Table 1: • The “Calpain activity” column, ++ stands for a calpain Ki (Ki(calpain)) of ≦40 nM and + means: 40 nM<Ki(Calpain)≦100 nM. • The “Sel. cat. B” column indicates the Ki(cathepsin B)/Ki(calpain) ratio. In this connection, ++ means a Ki(cathepsin B)/Ki(calpain) ratio of ≧30 and + means 10≦Ki(cathepsin B)/Ki(calpain)<30. • The “Sel. cat. K” column indicates the Ki(cathepsin K)/Ki(calpain) ratio. In this connection, ++ means a Ki(cathepsin K)/Ki(calpain) ratio of ≧30 and + means 10≦Ki(cathepsin K)/Ki(calpain)<30. • The “Sel. cat. L” column indicates the Ki(cathepsin L)/Ki(calpain) ratio. In this connection, ++ means a Ki(cathepsin L)/Ki(calpain) ratio of ≧50 and + means 30≦Ki(cathepsin L)/Ki(calpain)<50. • The “Sel. cat. S” column indicates the Ki(cathepsin S)/Ki(calpain) ratio. In this connection, ++ means a Ki(cathepsin S)/Ki(calpain) ratio of ≧100 and + means 50≦Ki(cathepsin S)/Ki(calpain)<100.
For `NC(=O)C(=O)C(Cc1ccccc1)NC(=O)c1cccnc1-n1cc(-c2ccccc2)cn1` (stereo not drawn) [Example 4, N-(3-Amino-1-benzyl-2,3-dioxopropyl)-2-(4-phenyl-1H-pyrazol-1-yl)nicotinamide], the Ki was no more than 40 nM. On the same count and under the same terms, the result for `CCCCC(NC(=O)c1cccnc1-n1ccc(-c2ccccc2)n1)C(=O)C(N)=O` (stereo not drawn) [Example 6, N-{1-[Amino(oxo)acetyl]pentyl}-2-(3-phenyl-1H-pyrazol-1-yl)nicotinamide] reads no more than 40 nM; that for `CCCCC(NC(=O)c1cccnc1-n1cnc(-c2ccc(Cl)cc2)c1)C(=O)C(N)=O` (stereo not drawn) [Example 10, N-{1-[Amino(oxo)acetyl]pentyl}-2-[4-(4-chlorophenyl)-1H-imidazol-1-yl]nicotinamide], no more than 40 nM.

For `CCCCC(NC(=O)c1cccnc1-n1cnc(-c2ccc(OC)cc2)c1)C(=O)C(N)=O` (stereo not drawn) [Example 12, N-{1-[Amino(oxo)acetyl]pentyl}-2-[4-(4-methoxyphenyl)-1H-imidazol-1-yl]nicotinamide], the Ki is no more than 40 nM. Same read-out and setting: as for `CCN(CC)c1ccc(-c2cn(-c3ncccc3C(=O)NC(Cc3ccccc3)C(=O)C(N)=O)cn2)cc1` (stereo not drawn) [Example 16, N-(3-Amino-1-benzyl-2,3-dioxopropyl)-2-{4-[4-(diethylamino)phenyl]-1H-imidazol-1-yl}nicotinamide hydrochloride], the figure is 40 to 100 nM. On to `NC(=O)C(=O)C(Cc1ccccc1)NC(=O)c1cccnc1-n1cnc(-c2ccccc2Cl)c1` (stereo not drawn) [Example 19, N-(3-Amino-1-benzyl-2,3-dioxopropyl)-2-[4-(2-chlorophenyl)-1H-imidazol-1-yl]nicotinamide hydrochloride], for which the Ki is no more than 40 nM. For `CCCCC(NC(=O)c1cccnc1-n1cnc(-c2ccccc2Cl)c1)C(=O)C(N)=O` (stereo not drawn) [Example 20, N-{1-[Amino(oxo)acetyl]pentyl}-2-[4-(2-chlorophenyl)-1H-imidazol-1-yl]nicotinamide hydrochloride], the Ki was no more than 40 nM.

For `CCCCC(NC(=O)c1cccnc1-n1cnc(-c2cccc(Cl)c2)c1)C(=O)C(N)=O` (stereo not drawn) [Example 21, N-{1-[Amino(oxo)acetyl]pentyl}-2-[4-(3-chlorophenyl)-1H-imidazol-1-yl]nicotinamide], the Ki was no more than 40 nM. On the same count and under the same terms, as for `NC(=O)C(=O)C(Cc1ccccc1)NC(=O)c1cccnc1-n1cnc(-c2cccc(Cl)c2)c1` (stereo not drawn) [Example 22, N-(3-Amino-1-benzyl-2,3-dioxopropyl)-2-[4-(3-chlorophenyl)-1H-imidazol-1-yl]nicotinamide], the figure is no more than 40 nM. As to `NC(=O)C(=O)C(Cc1ccccc1)NC(=O)c1cc(Cl)cnc1-n1cnc(-c2ccccc2)c1` (stereo not drawn) [Example 23, N-(3-Amino-1-benzyl-2,3-dioxopropyl)-5-chloro-2-(4-phenyl-1H-imidazol-1-yl)nicotinamide hydrochloride], the Ki is no more than 40 nM. On to `CC(C)CC(NC(=O)c1cc(Cl)cnc1-n1cnc(-c2ccccc2)c1)C(=O)C(N)=O` (stereo not drawn) [Example 25, N-{1-[Amino(oxo)acetyl]-3-methylbutyl}-5-chloro-2-(4-phenyl-1H-imidazol-1-yl)nicotinamide], for which the Ki is no more than 40 nM. On to `NC(=O)C(=O)C(Cc1ccccc1)NC(=O)c1cccnc1-n1ncc2ccccc21` (stereo not drawn) [Example 77, N-(3-Amino-1-benzyl-2,3-dioxopropyl)-2-(1H-indazol-1-yl)nicotinamide], for which the Ki was no more than 40 nM.

`O=C[C@H](Cc1ccccc1)NC(=O)c1cccnc1-n1ccc(-c2ccccc2)n1` [Example 105, N-[(1S)-1-Formyl-2-phenylethyl]-2-(3-phenyl-1H-pyrazol-1-yl)pyridine-3-carboxamide]: the Ki is no more than 40 nM. On the same count and under the same terms, the result for `COc1ccc(CC(NC(=O)c2cccnc2-n2ccc(-c3cccc(C(F)(F)F)c3)n2)C(=O)C(N)=O)cc1` (stereo not drawn) [Example 126, N-(3-Amino-1-{[4-(methyloxy)phenyl]methyl}-2,3-dioxopropyl)-2-{3-[3-(trifluoromethyl)phenyl]-1H-pyrazol-1-yl}pyridine-3-carboxamide] reads no more than 40 nM; that for `NC(=O)C(=O)C(Cc1ccccc1)NC(=O)c1cccnc1-n1ccc(-c2ccc3ocnc3c2)n1` (stereo not drawn) [Example 129, N-[3-Amino-2,3-dioxo-1-(phenylmethyl)propyl]-2-[3-(1,3-benzoxazol-5-yl)-1H-pyrazol-1-yl]pyridine-3-carboxamide], 40 to 100 nM.

The next test addresses T2, recombinant human cathepsin S (Homo sapiens, UniProt P25774).
T2 construct: purchased Calbiochem 219343; host or cells: E. coli
Briefly: Cathepsin S kinetic fluorescence enzyme inhibition assay. It is filed as biochemical. To be noted: selectivity ratio versus calpain I. How it is done:
as §1, §2
As to `CCCCC(NC(=O)c1cccnc1-n1ccc(-c2ccccc2)n1)C(=O)C(N)=O` (stereo not drawn) [Example 6, N-{1-[Amino(oxo)acetyl]pentyl}-2-(3-phenyl-1H-pyrazol-1-yl)nicotinamide], the “Sel cat. S (Ki(cathepsin S)/Ki(calpain) ratio)” value is on record as “+ (50≦Ki(cathepsin S)/Ki(calpain)<100)”. Still for that read-out and setting: the result for `NC(=O)C(=O)C(Cc1ccccc1)NC(=O)c1cccnc1-n1ccc(-c2ccncc2)n1` (stereo not drawn) [Example 65, N-(3-Amino-1-benzyl-2,3-dioxopropyl)-2-(3-pyridin-4-yl-1H-pyrazol-1-yl)nicotinamide] reads “++ (Ki(cathepsin S)/Ki(calpain) ratio of ≧100)”; that for `CN(C)Cc1cn(-c2ncccc2C(=O)NC(Cc2ccccc2)C(=O)C(N)=O)nc1-c1cccc(C(F)(F)F)c1` (stereo not drawn) [Example 176, N-[3-Amino-2,3-dioxo-1-(phenylmethyl)propyl]-2-{4-[(dimethylamino)methyl]-3-[3-(trifluoromethyl)phenyl]-1H-pyrazol-1-yl}pyridine-3-carboxamide], “++ (Ki(cathepsin S)/Ki(calpain) ratio of ≧100)”.

These data come from patent publication US7728012B2, “Carboxamide compounds and their use as calpain inhibitors” (Abbott GmbH & Co. KG, priority 2006, dated 2010).
